Here are results for 15 molecules from patent EP1209147A1, “CARBOXYLIC ACID DERIVATIVES AND ADHESION MOLECULE INHIBITORS CONTAINING THE SAME AS THE ACTIVE INGREDIENT” (TORAY INDUSTRIES, INC., priority 1999, dated 2001).

Where two headings read alike, the source gives them in different places.

Assay [1] has as its target VLA-4-IgG chimeric protein (Homo sapiens, UniProt P05556+P13612). As to the kind of experiment: Inhibition of binding between CS-1 peptide and VLA-4-IgG chimeric protein. How it is done:
The adhesion-inhibition activity of the compound of the present invention against VLA-4 may be examined by using an adhesion assay system in which the adhesion between VLA-4-expressing cells such as Ramos cells and Jurkat cells, and fibronectin or a fragment thereof, e.g., a peptide containing CS-1 sequence (Gly Pro Glu Ile Leu Asp Val Pro Ser Thr) (hereinafter referred to as "CS-1 peptide") immobilized on an immunoplate is measured. Alternatively, a binding assay system in which the binding of the VLA-4 protein to the fibronectin or a fragment thereof such as CS-1 peptide immobilized on an immunoplate is measured may be employed. In the present invention, the inhibition assay of the compound is preferably measured by a binding assay system which measures the binding between a chimeric protein of VLA-4 and immunoglobulin (VLA-4-IgG chimeric protein) and CS-1 peptide (Japanese patent application No. H9-234544), although the method of measuring the inhibition activity is not restricted to this method. The term "VLA-4-IgG chimeric protein" herein means the heterodimer composite molecule in which a chimeric protein between α4 of VLA-4 and immunoglobulin (hereinafter referred to as "VLAα4·IgG chimeric protein), and a chimeric protein between β1 of VLA-4 and immunoglobulin (hereinafter referred to as "VLAβ1·IgG chimeric protein) are associated. As the immunoglobulin, although heavy chain or light chain of IgG, IgM or the like may be employed, in the present invention, IgG1 heavy chain is used. When testing the inhibition activity of the compound, it is preferred to preliminarily mix the VLA-4-IgG chimeric protein and the test compound.
Effects of Compounds for Inhibition of Binding Between CS-1 Peptide and VLA-4-IgG
A conjugate between a peptide (Gys Leu His Gly Pro Glu Ile Leu Asp Val Pro Ser Thr) containing CS-1 sequence and rabbit IgG (Sigma) was prepared by the reported method (Humphries, M.J. et al. J. Biol.Chem., 262, 6886-6892 (1987)). The obtained conjugate was diluted with phosphate buffer (hereinafter referred to as "PBS(-)", NISSUI) and the resulting solution was placed in wells of a 96-well immunoplate (NUNC) in an amount of 100 µl/well, followed by leaving the solution to stand at 4°C for 16 hours to immobilize the conjugate.
Then each well was washed twice with PBS(-), and a PBS solution containing 1% BSA heat-treated at 80°C for 10 minutes was placed in each well in an amount of 300 µl/well. The immunoplate was left to stand at 4°C for 3 hours, and then the solution in each well was removed by aspiration.
After preliminarily allowing each compound to react with VLA-4-IgG chimeric protein (100 µl) at room temperature for 20 minutes, the resulting solution was allowed to react with CS-1 peptide in each well at 30°C for 3 hours. Thereafter, non-bound VLA-4-IgG chimeric protein was removed by aspiration and each well was washed twice with 0.1% BSA-containing TBS buffer (150 mM NaCl,25 mM Tris-HCI, 1 mM MnCl2 pH 7.4). To the bound VLA-4-IgG chimeric protein, biotin-labeled anti-human IgG antibody (Vector) as an primary antibody was added, and then avidin-labeled horse radish peroxidase (Sigma) as a secondary antibody was added, and the reaction was allowed to occur. After the reaction, o-phenylenediamine as a substrate was added to color the solution, and the absorbance at 490 nm was measured. From the absorbance, the binding-inhibition activity of each test compound was determined.

The subject of assay [2] is Mouse Asthma Model. In words: Mouse asthma model (OVA/Alum sensitization, OVA inhalation, airway anaphylaxis and BALF eosinophils). The assay is classed as in vivo, BLAB/c mouse. To be noted: at a dose of not more than 150 mg/kg, topically or systemically. How it is done:
A mixed solution containing aluminum hydroxide gel (Alum) on which ovalbumin (hereinafter "OVA") was adsorbed (20 ∝g OVA/2mg Alum/200 ∝l physiological saline) was intraperitoneally administered to each BLAB/c mouse (female, 7 weeks old, JAPAN CHARLES RIVER) at a dose of 200 ∝l ([…]) per time on DAY-1 and DAY-14 to sensitize the mouse. Then each mice was made to aspire 2% OVA dissolved in physiological saline on DAY-28, 29 and 30 to induce inflammation. Compound Nos. 143 and 236 used as the test compounds were dissolved in physiological saline and each solution was topically or systemically administered at 30 minutes before induction by OVA, and twice a day after induction.
On DAY-31, development of airway anaphylaxis was measured using a non-restrictive chamber (BUXCO). Then the bronchus of each mouse was incised and the bronchus and alveoli were washed (BAL) with 0.7 ml of physiological saline. After the washing, the washing fluid (BALF) of the bronchus and alveoli was recovered and centrifuged. The leukocytes contained in the BALF were subjected to site spin to prepare a smear specimen. After staining the specimen by May-Giemsa staining method, the leukocytes were grouped and counted under microscope to determine the number of eosinophils. The experiment was carried out using 6 to 8 mice in each group. The results are shown in terms of mean ± standard error.

Assay [3] has as its system Auricular Edema Model. As to the kind of experiment: Auricular edema model (IgE anti-DNP passive sensitization, DNFB induction). The format is in vivo, BLAB/c mouse. The settings on record: at a dose of not more than 150 mg/kg; topically or systemically, totally 3 times. Here is the method:
To each BLAB/c mouse (female, 7 weeks old, JAPAN CHARLES RIVER), mouse IgE anti-DNP antibody (5 mg/kg, SEIKAGAKU CORPORATION) was intravenously administered to passively sensitize the mouse. Twenty four hours later, 20 µl of 0.38% 2,4- dinitrofluorobenzene (DNFB, Aldrich) dissolved in acetone:olive oil (4:1) was applied to the auricle of the sensitized mouse to induce inflammation. The thickness of the auricle was measured until 24 hours after the induction with Digimatic Indicator (Mitutoyo) and the ear swelling rate was calculated according to the following equation: Ear Swelling Rate (%) = (A - B)/B x 100 [formula] • A: Thickness of right auricle at 24 hours after induction • B: Thickness of right auricle before induction
Twenty four hours after the induction, the auricle was cut off and fixed with formalin. After the fixation, continuous sections of the auricle were prepared and stained by Luna staining. The number of eosinophils in each section was counted and the total of them was defined as the number of eosinophils accumulated in the auricle.
Compound No. 140 used as the test compound was dissolved in physiological saline and the solution was intravenously administered totally 3 times, i.e., at the time of sensitization, at 8 hours and 24 hours after sensitization, at a dose of 400 mg/kg per each time. Further, to examine the effect of the compound when applied to the auricle, the compound was dissolved in ethanol, and the solution was applied to the auricle totally twice, i.e., at 8 hours after sensitization and at 1 hour before the induction, at a dose of 0.3 mg/ear. To the background group and the control group, physiological saline was intravenously administered and ethanol was applied, respectively. The experiment was carried out using 4 to 6 mice in each group. The results are shown in terms of mean ± standard error.
Twenty four hours after the induction, the auricle was cut off and fixed with formalin. After the fixation, continuous sections of the auricle were prepared and stained by Luna staining. The number of eosinophils in each section was counted. Compound No. 143 used as the test compound was dissolved in physiological saline and the solution was topically or systemically administered totally 3 times, i.e., at the time of sensitization, at 8 hours and 24 hours after sensitization. The experiment was carried out using 4 to 6 mice in each group. The results are shown in terms of mean ± standard error.

Where [4] appears, read: binding of VLA-4-IgG chimeric protein to immobilized CS-1 peptide, compound preincubated 20 minutes, read-out: Inhibition Activity(IC50 : nM).

Chain of VLA-4-IgG chimeric protein (P13612 with tags, fused parts or gaps limits assumed): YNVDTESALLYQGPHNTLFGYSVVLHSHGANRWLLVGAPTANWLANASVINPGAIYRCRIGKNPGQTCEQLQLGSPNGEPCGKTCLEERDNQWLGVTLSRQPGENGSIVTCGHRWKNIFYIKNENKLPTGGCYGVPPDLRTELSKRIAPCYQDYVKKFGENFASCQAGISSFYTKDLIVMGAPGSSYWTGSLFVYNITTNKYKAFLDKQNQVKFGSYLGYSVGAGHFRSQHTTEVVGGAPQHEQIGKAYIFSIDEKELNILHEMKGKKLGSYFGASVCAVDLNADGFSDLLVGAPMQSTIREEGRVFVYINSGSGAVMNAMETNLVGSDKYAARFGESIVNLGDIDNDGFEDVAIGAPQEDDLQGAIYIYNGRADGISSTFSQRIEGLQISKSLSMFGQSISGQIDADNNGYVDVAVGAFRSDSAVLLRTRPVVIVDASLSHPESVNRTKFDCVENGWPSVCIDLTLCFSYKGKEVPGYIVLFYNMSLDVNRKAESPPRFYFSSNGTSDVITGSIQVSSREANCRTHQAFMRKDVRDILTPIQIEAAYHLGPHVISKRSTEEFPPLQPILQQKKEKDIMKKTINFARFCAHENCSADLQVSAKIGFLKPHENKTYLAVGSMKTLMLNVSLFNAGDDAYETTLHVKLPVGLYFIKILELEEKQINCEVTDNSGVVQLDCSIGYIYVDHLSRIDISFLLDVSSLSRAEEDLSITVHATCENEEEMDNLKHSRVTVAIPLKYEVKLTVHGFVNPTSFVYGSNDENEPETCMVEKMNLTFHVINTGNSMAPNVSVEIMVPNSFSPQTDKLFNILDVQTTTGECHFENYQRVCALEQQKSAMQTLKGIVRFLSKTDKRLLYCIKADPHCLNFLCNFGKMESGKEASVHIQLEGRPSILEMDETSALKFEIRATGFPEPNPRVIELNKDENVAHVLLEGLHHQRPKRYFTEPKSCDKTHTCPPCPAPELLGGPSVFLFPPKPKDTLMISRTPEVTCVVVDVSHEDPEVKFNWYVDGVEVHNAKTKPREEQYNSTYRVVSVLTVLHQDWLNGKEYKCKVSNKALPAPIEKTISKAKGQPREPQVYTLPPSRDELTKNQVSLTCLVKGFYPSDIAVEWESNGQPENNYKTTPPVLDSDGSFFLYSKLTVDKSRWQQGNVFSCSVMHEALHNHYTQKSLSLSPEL
Chain of VLA-4-IgG chimeric protein (P05556 with tags, fused parts or gaps limits assumed): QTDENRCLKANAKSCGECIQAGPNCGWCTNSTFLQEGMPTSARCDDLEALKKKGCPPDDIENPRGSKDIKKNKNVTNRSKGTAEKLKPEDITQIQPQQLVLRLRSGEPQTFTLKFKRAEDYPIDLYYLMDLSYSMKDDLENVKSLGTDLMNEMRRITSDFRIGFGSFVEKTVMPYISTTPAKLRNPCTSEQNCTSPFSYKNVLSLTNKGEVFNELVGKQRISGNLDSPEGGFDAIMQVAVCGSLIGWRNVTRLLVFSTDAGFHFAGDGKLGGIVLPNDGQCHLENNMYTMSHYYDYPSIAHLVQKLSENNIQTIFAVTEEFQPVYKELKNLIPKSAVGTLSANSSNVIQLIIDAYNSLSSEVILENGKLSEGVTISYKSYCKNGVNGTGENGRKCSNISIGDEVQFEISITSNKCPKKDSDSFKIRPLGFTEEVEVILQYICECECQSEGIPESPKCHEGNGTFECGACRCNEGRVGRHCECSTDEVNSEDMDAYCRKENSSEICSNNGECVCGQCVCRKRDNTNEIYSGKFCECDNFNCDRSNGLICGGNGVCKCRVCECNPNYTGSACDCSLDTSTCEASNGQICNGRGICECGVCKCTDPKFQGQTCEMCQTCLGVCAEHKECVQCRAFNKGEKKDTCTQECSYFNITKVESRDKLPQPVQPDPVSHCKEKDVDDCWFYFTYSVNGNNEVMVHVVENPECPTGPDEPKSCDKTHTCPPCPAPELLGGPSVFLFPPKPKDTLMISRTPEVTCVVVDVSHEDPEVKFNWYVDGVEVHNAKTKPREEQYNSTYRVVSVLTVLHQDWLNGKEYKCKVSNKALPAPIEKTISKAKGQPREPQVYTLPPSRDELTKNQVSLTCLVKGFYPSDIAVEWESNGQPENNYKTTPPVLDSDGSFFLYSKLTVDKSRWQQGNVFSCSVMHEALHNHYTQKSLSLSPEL

A word on the IC50: it is the concentration at which inhibition is half-maximal. The molecule `CC(C)CC(C(=O)N[C@@H](CCSC[C@H](NC(=O)CC(C)(C)C)C(=O)O)C(=O)O)c1ccc(O)cc1` (stereo partly drawn) [Example 14, 4-(2(R)-carboxy-2(R)-(3,3-dimethylbutanoylamino)ethylthio)-2(S)-(2(R,S)-(4-hydroxyphenyl)-4-methylpentanoylamino) butyric acid] registered an IC50 in assay [1] of 500 nM.
Same read-out and setting: under `CC(C)CC(C(=O)NCCCSC[C@H](NC(=O)CC(C)(C)C)C(=O)O)c1ccc(O)cc1` (stereo partly shown) [Example 19] stands 500 nM.
For `O=C(N[C@@H](CCSC[C@H](NC(=O)c1c(Cl)cccc1Cl)C(=O)O)C(=O)O)c1c(Cl)cccc1Cl` [Example 180, 4-((2R)-2-((2,6-dichlorophenyl)carbonylamino)-2-carboxyethylthio) (2S)-2-((2,6-dichlorophenyl)carbonylamino)butyric acid], in assay [1] (read-out: Inhibition Activity(IC50 : nM), binding of VLA-4-IgG chimeric protein to immobilized CS-1 peptide, compound preincubated 20 minutes), the IC50 was 38 nM.
Regarding `CC(C)C[C@H](OCc1ccccc1)C(=O)N[C@@H](Cc1ccc(OCC(C)(C)C)cc1)C(=O)O` [Example 102, 2(S)-(4-methyl-2(S)-(phenylmethoxy)pentanoylamino)-3-(4-(2,2-dimethylpropoxy)phenyl)propionic acid], the half-maximal inhibitory concentration (IC50) in assay [1] (setting [4]) turned out to be 500 nM.
`O=C(NC(CCCCC(NC(=O)c1c(Cl)cccc1Cl)C(=O)O)C(=O)O)c1c(Cl)cccc1Cl` (stereo not shown) [Example 154, 2,7-bis((2,6-dichlorophenyl)carbonylamino)octanedioic acid]: in assay [1] (setting [4]), the IC50 was determined as 430 nM.
For `CC(C)C[C@H](NC(=O)Cc1ccc(NC(=O)Nc2ccccc2)cc1)C(=O)N[C@@H](CCSC[C@H](NC(=O)CC(C)(C)C)C(=O)O)C(=O)O` [Example 176, 4-((2R)-2-(3,3-dimethylbutanoylamino)-2-carboxyethylthio)-(2S)-2-((2S)-4-methyl-2-(2-(4-((phenylamino)carbonylamino)phenyl)acetylamino)pentanoylamino)butyric acid], in assay [1] (setting [4]), the IC50 was 13 nM.
Still for that read-out and setting: as for “3-((2(R)-((1-acetyl-3(R,S)-(4-hydroxyphenyl)pyrrolidin-2(R,S)-yl)carbonylamino)-2(R)-carbonylethyl)disulfanyl)-2(R)-(3,3-dimethylbutanoylamino)propionic acid [Example 74]”, the figure is 120 nM.
With `CC(C)C[C@H](NC(=O)Cc1ccc(NC(=O)Nc2ccccc2)cc1)C(=O)N[C@@H](Cc1ccc(CCC(=O)O)cc1)C(=O)O` [Example 171, (2S)-2-((2S)-4-methyl-2-(2-(4-((phenylamino)carbonylamino)phenyl)acetylamino)pentanoylamino)-3-(4-(2-carboxyethyl)phenyl)propionic acid], the IC50 in assay [1] (setting [4]) amounted to 780 nM.
For `CC(C)CC(C(=O)N[C@@H](CCSC[C@H](NC(=O)C(CC(C)C)c1ccc(O)cc1)C(=O)O)C(=O)O)c1ccc(O)cc1` (stereo partly drawn) [Example 8, 4-(2(R)-carboxy-2(R)-(2(R,S)-(4-hydroxyphenyl)-4-methylpentanoylamino)ethylthio)-2(S)-(2(R,S)-(4-hydroxyphenyl)-4-methylpentanoylamino) butyric acid], the IC50 in assay [1] was found to be 200 nM.
Consider `CC(C)CC(C(=O)NC(Cc1ccc(CCC(=O)O)cc1)C(=O)O)c1ccc(O)cc1` (single isomer, unassigned) [Example 120, 3-(4-(2-carboxyethyl)phenyl)-2-(2-(4-hydroxyphenyl)-4-methylpentanoylamino)propionic acid], for which, in assay [1] (setting [4]), the IC50 was 160 nM.
On to “(2R)-3-(((2S)-1-(2-cyclohexylacetyl)pyrrolidin-2-yl)methylthio)-2-(3,3-dimethylbutanoylamino)propionic acid [Example 193]”, for which the IC50 in assay [1] (setting [4]) is 2200 nM.
For `COc1cccc(OC)c1C(=O)NCCCC(NC(=O)c1c(Cl)cccc1Cl)C(=O)O` (stereo not shown) [Example 143, 2-((2,6-dichlorophenyl)carbonylamino)-5-((2,6-dimethoxyphenyl)carbonylamino)pentanoic acid], the “accumulation of eosinophils to the lung” value in assay [2] (BALF on DAY-31) is “inhibited”. Moreover, in assay [2] (DAY-31), the “progress of airway anaphylaxis” value is “inhibited”. The IC50 in assay [1] (setting [4]) was determined as 13 nM. Further, in assay [3], the “accumulation of eosinophils to auricle induced by application of the antigen” value is “inhibited” and the “swelling of ear induced by application of the antigen” value is “inhibited”.
On to `CC(C)CC(NC(=O)CCc1ccc(CC(NC(=O)CC(C)(C)C)C(=O)O)cc1)c1ccc(O)cc1` (stereo not shown) [Example 131, 3-(4-(2-(N-(1-(4-hydroxyphenyl)-3-methylbutyl)carbamoyl)ethyl)phenyl)-2-(3,3-dimethylbutanoylamino)propionic acid], for which the half-maximal inhibitory concentration (IC50) in assay [1] (setting [4]) turned out to be 1800 nM.
For the molecule `O=C(O)CCc1ccc(C[C@H](NC(=O)c2c(Cl)cccc2Cl)C(=O)O)cc1` [Example 161, 2(S)-2-((2,6-dichlorophenyl)carbonylamino)-3-(4-(2-carbaxyethyl)phenyl)propionic acid], the IC50 in assay [1] was 64 nM.
For `CC(C)CC(C(=O)N[C@@H](CSSC[C@H](NC(=O)CC(C)(C)C)C(=O)O)C(=O)O)c1ccc(O)cc1` (stereo partly drawn) [Example 62, 3-((2(R)-carboxy-2(R)-(2(R,S)-(4-hydroxyphenyl)-4-methylpentanoylamino)ethyl)disulfanyl)-2(R)-(3,3-dimethylbutanoylamino)propionic acid], in assay [1], the IC50 is 90 nM.
